Results on two compounds are retold here after patent publication US20240018153A1, “BENZENESULFONAMIDE DERIVATIVES AND USES THEREOF” (2692372 ONTARIO, INC., priority 2020, published 2024).

Bounds are passed on as bounds.

By remaining activity is commonly meant the activity still measured, relative to the control. As usually defined, the IC50 is the concentration that gives 50% inhibition.

Assay [1] deals with T1, EGFR (Homo sapiens (Human), UniProt P00533). The assay is described as follows: HTRF KinEASE-TK kinase assay, EGFR. It counts as biochemical. The following applies: 3 h preincubation; for remaining activity at 1 µM: 1 μM compound, read-out: % EGFR Remaining activity vs DMSO (1 μM, 3 h); for remaining activity at 10 µM: 10 μM compound, read-out: % EGFR Remaining activity vs DMSO (10 μM, 3 h). In a few lines:
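Buffer contained 5 mM MgCl2, 2 mM MnCl2 and 1 mM TCEP; compounds at two final concentrations, 1 and 10 uM, with 0.5% DMSO, pre-incubated with the enzyme.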
A general note: Time-resolved FRET reads energy transfer from a long-lived donor to a nearby acceptor.

The target in a further assay is BTK (Homo sapiens (Human), UniProt Q06187). In words: HTRF KinEASE-TK kinase assay, BTK. The note with it: 3 h preincubation; for remaining activity at 1 µM: 1 μM compound, read-out: % BTK Remaining activity vs DMSO (1 μM, 3 h); for remaining activity at 10 µM: 10 μM compound, read-out: % BTK Remaining activity vs DMSO (10 μM, 3 h). It is filed as biochemical. In short, it runs like this:
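Read-out was the 665 nm to 620 nm ratio, taken 60 min after detection, reflecting phosphorylated biotinylated substrate. Before this, BTK reacted 45 min with substrate and ATP in kinase buffer supplemented with MnCl2 (10 mM), MgCl2 (5 mM), ATPγS (1 uM) and TCEP (1 mM).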

The target of another assay is JAK3 (Homo sapiens (Human), UniProt P52333). The assay is described as follows: HTRF KinEASE-TK kinase assay, JAK3. It is filed as biochemical. The note with it: for remaining activity at 1 µM: read-out: % JAK3 Remaining activity vs DMSO (1 μM, 3 h); for remaining activity at 10 µM: read-out: % JAK3 Remaining activity vs DMSO (10 μM, 3 h). In short, it runs like this: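 HTRF read-out: the Em665/Em620 ratio, measured 60 min after stopping with EDTA, 31.25 nM SA-XL665 and 100-fold diluted Eu-antibody, was taken as phosphorylated substrate. Beforehand, 0.21 nM JAK3 (0.0133 ng/µl) sat with compound for 3 h at room temperature, then biotinylated substrate plus ATP started the reaction.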

The target in the next assay is BMX (Homo sapiens (Human), UniProt P51813). In words: HTRF KinEASE-TK kinase assay, BMX. The note with it: for remaining activity at 1 µM: 1 uM compound; for remaining activity at 1 µM / remaining activity at 10 µM: 3 h preincubation; for remaining activity at 10 µM: 10 uM compound. It counts as biochemical. In a few lines: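 Phosphorylation was quantified by HTRF KinEASE-TK as the 665/620 nm ratio, read 60 min after EDTA stop with SA-XL665 (31.25 nM) and europium antibody. Before the reaction, 3.03 nM BMX was preincubated with compound for 3 hours at room temperature, and the reaction was started with biotinylated substrate plus ATP.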

Assay [2] deals with T1, EGFR. In words: A549 cell lysis and immunoassay, phospho-EGFR (Y1068) inhibition. It counts as cell-based. The arrangement: key: X: EGFR bound and autophosphoration of EGFR inhibited in cells. The following applies: A549 cells; for pEGFR inhibition (A549, compound concentration, 24 h): compound concentration 10 μM. In a few lines: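 A549 cells starved 4 h in 1% FBS DMEM, then treated 24 h with compound at 37 °C and pulsed 10 min with 50 ng/ml hEGF before RIPA lysis. Total EGFR (0.125 μg/μl lysate, anti-EGFR EP38Y) and pEGFR Y1068 (1 μg/μl lysate) were quantified by Simple Western on Jess. Signals were normalized to total-protein loading, then to DMSO.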

A further assay addresses FGFR4 (Homo sapiens (Human), UniProt P22455). In words: HTRF KinEASE-TK kinase assay, FGFR4. It counts as biochemical. The note with it: for remaining activity at 1 µM: read-out: % FGFR4 Remaining activity vs DMSO (1 μM, 3 h); for remaining activity at 10 µM: read-out: % FGFR4 Remaining activity vs DMSO (10 μM, 3 h). In a few lines:
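HTRF ratio (Em 665/620 nm) measured 60 min after EDTA stop with SA-XL665 (31.25 nM) and europium antibody reflects phosphorylated biotinylated substrate. Before substrate/ATP addition, 5.12 nM (0.333 ng/ul) FGFR4 sat with compound 3 h at room temperature.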

JAK3, sequence (P52333 781-1124): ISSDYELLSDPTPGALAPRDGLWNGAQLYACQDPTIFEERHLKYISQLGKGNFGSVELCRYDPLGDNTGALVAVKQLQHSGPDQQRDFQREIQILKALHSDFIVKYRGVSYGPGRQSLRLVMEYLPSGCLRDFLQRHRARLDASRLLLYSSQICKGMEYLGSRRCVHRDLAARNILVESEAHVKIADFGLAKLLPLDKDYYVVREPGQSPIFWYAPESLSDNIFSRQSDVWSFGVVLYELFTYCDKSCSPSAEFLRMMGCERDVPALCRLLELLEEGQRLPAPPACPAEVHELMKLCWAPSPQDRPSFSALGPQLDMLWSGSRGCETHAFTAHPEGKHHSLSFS
T1 sequence (P00533 25-1210): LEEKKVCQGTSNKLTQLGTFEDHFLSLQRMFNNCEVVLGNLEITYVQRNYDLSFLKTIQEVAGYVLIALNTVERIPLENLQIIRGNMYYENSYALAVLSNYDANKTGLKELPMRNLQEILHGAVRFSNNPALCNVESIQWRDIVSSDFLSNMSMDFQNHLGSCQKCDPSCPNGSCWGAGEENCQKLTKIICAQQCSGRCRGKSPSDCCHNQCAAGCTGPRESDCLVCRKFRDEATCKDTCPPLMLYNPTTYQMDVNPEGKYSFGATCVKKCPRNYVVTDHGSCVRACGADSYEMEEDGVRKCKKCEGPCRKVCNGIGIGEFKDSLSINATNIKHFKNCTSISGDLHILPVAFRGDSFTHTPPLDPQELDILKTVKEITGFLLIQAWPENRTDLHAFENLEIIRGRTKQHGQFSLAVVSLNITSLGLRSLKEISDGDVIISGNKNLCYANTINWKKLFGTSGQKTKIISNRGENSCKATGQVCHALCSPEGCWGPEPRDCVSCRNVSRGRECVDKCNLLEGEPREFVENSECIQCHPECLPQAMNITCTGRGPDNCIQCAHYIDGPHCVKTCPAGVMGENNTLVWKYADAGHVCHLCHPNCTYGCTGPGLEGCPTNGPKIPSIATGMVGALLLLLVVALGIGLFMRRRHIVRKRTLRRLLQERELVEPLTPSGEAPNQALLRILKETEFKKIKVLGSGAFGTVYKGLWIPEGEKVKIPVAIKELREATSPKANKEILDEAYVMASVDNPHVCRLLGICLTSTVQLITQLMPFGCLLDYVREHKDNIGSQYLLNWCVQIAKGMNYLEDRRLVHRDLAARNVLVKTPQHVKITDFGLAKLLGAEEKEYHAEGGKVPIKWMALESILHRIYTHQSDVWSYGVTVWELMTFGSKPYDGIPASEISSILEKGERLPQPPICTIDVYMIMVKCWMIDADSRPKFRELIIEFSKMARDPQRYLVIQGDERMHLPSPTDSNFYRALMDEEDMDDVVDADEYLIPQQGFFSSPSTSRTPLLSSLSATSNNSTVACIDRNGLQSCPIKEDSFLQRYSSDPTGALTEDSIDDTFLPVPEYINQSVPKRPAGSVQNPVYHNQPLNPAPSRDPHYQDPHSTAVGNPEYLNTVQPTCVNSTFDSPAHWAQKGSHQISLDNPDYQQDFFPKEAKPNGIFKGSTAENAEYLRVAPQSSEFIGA
BTK, sequence (Q06187 whole entry): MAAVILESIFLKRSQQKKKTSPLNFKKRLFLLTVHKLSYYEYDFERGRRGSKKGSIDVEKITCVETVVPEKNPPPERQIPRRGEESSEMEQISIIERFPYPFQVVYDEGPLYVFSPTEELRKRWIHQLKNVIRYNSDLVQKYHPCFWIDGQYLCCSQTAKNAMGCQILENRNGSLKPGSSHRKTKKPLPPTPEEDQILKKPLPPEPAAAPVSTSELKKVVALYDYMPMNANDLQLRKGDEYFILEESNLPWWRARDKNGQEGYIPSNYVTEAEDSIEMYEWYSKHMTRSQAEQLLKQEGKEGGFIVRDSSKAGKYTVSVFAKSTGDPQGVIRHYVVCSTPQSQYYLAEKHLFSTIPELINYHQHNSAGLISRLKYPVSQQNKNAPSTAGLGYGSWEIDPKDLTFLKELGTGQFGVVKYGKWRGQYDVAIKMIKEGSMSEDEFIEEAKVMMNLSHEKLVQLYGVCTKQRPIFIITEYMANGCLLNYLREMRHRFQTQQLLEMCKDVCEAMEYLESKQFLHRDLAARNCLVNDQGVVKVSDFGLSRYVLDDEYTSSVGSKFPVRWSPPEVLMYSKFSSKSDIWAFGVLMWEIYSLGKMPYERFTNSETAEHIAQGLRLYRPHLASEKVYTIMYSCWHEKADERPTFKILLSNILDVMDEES
FGFR4, sequence (P22455 22-802): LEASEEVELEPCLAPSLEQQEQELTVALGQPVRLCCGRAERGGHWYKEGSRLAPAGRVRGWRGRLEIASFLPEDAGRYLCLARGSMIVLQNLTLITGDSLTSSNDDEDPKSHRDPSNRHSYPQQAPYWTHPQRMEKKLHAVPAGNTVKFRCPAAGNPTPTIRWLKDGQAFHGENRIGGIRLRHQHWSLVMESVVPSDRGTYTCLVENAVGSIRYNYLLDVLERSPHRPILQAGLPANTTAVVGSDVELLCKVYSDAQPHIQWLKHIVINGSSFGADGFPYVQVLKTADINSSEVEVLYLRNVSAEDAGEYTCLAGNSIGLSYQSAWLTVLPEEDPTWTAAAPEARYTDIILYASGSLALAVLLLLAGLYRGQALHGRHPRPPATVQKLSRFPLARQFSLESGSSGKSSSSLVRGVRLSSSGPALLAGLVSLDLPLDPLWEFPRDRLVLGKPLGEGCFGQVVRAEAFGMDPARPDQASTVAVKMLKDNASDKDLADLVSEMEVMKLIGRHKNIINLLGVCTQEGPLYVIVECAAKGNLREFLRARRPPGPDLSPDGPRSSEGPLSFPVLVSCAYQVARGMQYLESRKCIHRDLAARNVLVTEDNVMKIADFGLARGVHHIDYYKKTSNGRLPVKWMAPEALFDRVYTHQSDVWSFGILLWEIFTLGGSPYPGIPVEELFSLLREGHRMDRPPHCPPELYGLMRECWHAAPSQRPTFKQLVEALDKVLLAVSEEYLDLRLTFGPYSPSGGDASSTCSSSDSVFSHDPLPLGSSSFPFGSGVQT
BMX, sequence (P51813 whole entry): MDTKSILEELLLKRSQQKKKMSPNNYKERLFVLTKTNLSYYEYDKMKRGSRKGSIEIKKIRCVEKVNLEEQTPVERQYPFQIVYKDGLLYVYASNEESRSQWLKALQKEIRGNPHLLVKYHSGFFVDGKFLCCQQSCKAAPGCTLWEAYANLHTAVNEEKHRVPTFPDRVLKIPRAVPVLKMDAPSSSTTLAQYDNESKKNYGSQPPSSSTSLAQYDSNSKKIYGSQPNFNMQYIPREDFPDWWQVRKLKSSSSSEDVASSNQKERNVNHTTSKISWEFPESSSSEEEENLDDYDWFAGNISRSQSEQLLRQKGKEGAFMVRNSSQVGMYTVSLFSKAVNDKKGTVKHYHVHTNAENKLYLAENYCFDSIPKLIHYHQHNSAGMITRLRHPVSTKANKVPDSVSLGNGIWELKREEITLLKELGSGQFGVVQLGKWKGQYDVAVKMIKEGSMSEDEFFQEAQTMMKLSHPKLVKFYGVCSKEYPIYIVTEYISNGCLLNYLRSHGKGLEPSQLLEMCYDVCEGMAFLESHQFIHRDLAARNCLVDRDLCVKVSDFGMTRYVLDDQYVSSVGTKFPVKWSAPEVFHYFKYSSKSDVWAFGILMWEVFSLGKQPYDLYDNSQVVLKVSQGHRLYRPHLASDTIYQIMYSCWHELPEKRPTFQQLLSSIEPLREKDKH

As for `C[S+]([O-])c1c(F)c(F)c(F)c(F)c1C(=O)Nc1cc2c(Nc3ccc(F)c(Cl)c3)ncnc2cc1OC1CCOC1` (stereo not shown) [Compound I-3], the remaining activity at 1 µM at EGFR [1] was below 50%; on BTK it was 50 to 90%; on JAK3, above 90%; on BMX it was 50 to 90%; on FGFR4 it was above 90%. The remaining activity at 10 µM was below 50% at EGFR [1]; 50 to 90% at BTK; above 90% on JAK3; above 90% at BMX; above 90% at FGFR4. For the same compound, the IC50 at EGFR [1] (dose response, read-out: EGFR Inhibition IC50) was below 1000 nM. Moreover, the “pEGFR inhibition (A549, 1 μM, 24 h)” value at EGFR [2] is given as “X”. For the same compound, the “pEGFR inhibition (A549, compound concentration, 24 h)” value on EGFR [2] is on record as “X”.

For `CS(=O)(=O)c1c(F)c(F)c(F)c(F)c1CNCCNc1ncnc2[nH]ccc12` [Compound I-50, N^1-(7H-pyrrolo[2,3-d]pyrimidin-4-yl)-N2-(2,3,4,5-tetrafluoro-6-(methylsulfonyl)benzyl) ethane-1,2-diamine], the remaining activity at 1 µM at EGFR [1] is above 90%; at BTK it was below 50%; at JAK3, below 50%; on BMX, below 50%; at FGFR4 it was above 90%. For the same compound, the remaining activity at 10 µM on EGFR [1] is 50 to 90%; at BTK it was below 50%; on JAK3, below 50%; at BMX, below 50%; on FGFR4, 50 to 90%. Besides, the IC50 was below 1000 nM on BTK (dose response, read-out: BTK Inhibition IC50); above 1000 nM on JAK3 (dose response); below 1000 nM at BMX (dose response). Besides, on EGFR [2], the “pEGFR inhibition (A549, 1 μM, 24 h)” value was “X”. Further, the “pEGFR inhibition (A549, compound concentration, 24 h)” value at EGFR [2] is “X”.
